US20150175651A1, “NEUROACTIVE STEROIDS, COMPOSITIONS, AND USES THEREOF” (SAGE THERAPEUTICS, INC., priority 2012, published 2015)

The compounds below were run against GABA receptor complex (GRC), [35S]-TBPS binding in rat brain cortical membranes (assay: Steroid inhibition of [35S]-TBPS binding (radioligand displacement)). Conditions: 2 nM [35S]-TBPS, in the presence of 5 μM GABA, read-out: 35S-TBPS Radioligand Displacement (Control IC50).
Procedure: TBPS binding assays using rat brain cortical membranes in the presence of 5 μM GABA has been described (Gee et al, J. Pharmacol. Exp. Ther. 1987, 241, 346-353; Hawkinson et al, Mol. Pharmacol. 1994, 46, 977-985).
Briefly, cortices are rapidly removed following decapitation of carbon dioxide-anesthetized Sprague-Dawley rats (200-250 g). The cortices are homogenized in 10 volumes of ice-cold 0.32 M sucrose using a glass/teflon homogenizer and centrifuged at 1500×g for 10 min at 4° C. The resultant supernatants are centrifuged at 10,000×g for 20 min at 4° C. to obtain the P2 pellets. The P2 pellets are resuspended in 200 mM NaCl/50 mM Na—K phosphate pH 7.4 buffer and centrifuged at 10,000×g for 10 min at 4 OC. This ishing procedure is repeated twice and the pellets are resuspended in 10 volumes of buffer. Aliquots (100 μL) of the membrane suspensions are incubated with 2 nM [^35S]-TBPS and 5 μL, aliquots of test drug dissolved in dimethyl sulfoxide (DMSO) (final 0.5%) in the presence of 5 μM GABA. The incubation is brought to a final volume of 1.0 mL with buffer. Nonspecific binding is determined in the presence of 2 μM unlabeled TBPS and ranged from 15 to 25%. Following a 90 min incubation at room temp, the assays are terminated by filtration through glass fiber filters (Schleicher and Schuell No. 32) using a cell harvester (Brandel) and rinsed three times with ice-cold buffer. Filter bound radioactivity is measured by liquid scintillation spectrometry. Non-linear curve fitting of the overall data for each drug averaged for each concentration is done using Prism (GraphPad). […] The concentration of test compound producing 50% inhibition (IC50) of specific binding and the maximal extent of inhibition (Imax) are determined for the individual experiments with the same model used for the overall data and then the means+SEM.s of the individual experiments are calculated.
Various compounds are or can be screened to determine their potential as modulators of [^35S]-TBPS binding in vitro. These assays are or can be performed in accordance with the above discussed procedures.

| SMILES | IC50 |
| --- | --- |
| CC(=O)O[C@H]1C[C@@]2(C)[C@@H](CC[C@@H]3[C@@H]2CC[C@]2(C)/C(=C\C#N)CC[C@@H]32)C[C@@H]1O [Compound 1, (2S,3S,5S,8R,9S,10S,13S,14S,Z)-17-(cyanomethylene)-3-hydroxy-10,13-dimethyl-hexadecahydro-1H-cyclopenta[a]phenanthren-2-yl acetate] | 100 to 500 nM |
| C[C@]12C[C@H](OC(=O)c3ccccc3)[C@@H](O)C[C@@H]1CC[C@@H]1[C@@H]2CC[C@]2(C)[C@@H](C(=O)CO)CC[C@@H]12 [Compound 2, (2S,3S,5S,8R,9S,10S,13S,14S,17S)-3-hydroxy-17-(2-hydroxyacetyl)-10,13-dimethyl-hexadecahydro-1H-cyclopenta[a]phenanthren-2-yl benzoate] | 100 to 500 nM |
| CC(=O)O[C@H]1C[C@@H]2[C@H](CC[C@]3(C)/C(=C\C#N)CC[C@@H]23)[C@@]2(C)CC[C@@H](O)C[C@H]12 [Compound 3, (3R,5S,6S,8R,9S,10R,13S,14S,Z)-17-(cyanomethylene)-3-hydroxy-10,13-dimethyl-hexadecahydro-1H-cyclopenta[a]phenanthren-6-yl acetate] | 100 to 500 nM |
| CC(=O)O[C@H]1C[C@]2(C)/C(=C\C#N)CC[C@H]2[C@@H]2CC[C@H]3C[C@H](O)CC[C@]3(C)[C@H]21 [Compound 4, (3R,5S,8S,9S,10S,11S,13S,14S,Z)-17-(cyanomethylene)-3-hydroxy-10,13-dimethyl-hexadecahydro-1H-cyclopenta[a]phenanthren-11-yl acetate] | 100 to 500 nM |
| CC(=O)OC[C@]12CC[C@@H](O)C[C@@H]1CC[C@@H]1[C@@H]2CC[C@]2(C)/C(=C\C#N)CC[C@@H]12 [Compound 5, ((3R,5S,8S,9S,10R,13S,14S,Z)-17-(cyanomethylene)-3-hydroxy-13-methyl-hexadecahydro-1H-cyclopenta[a]phenanthren-10-yl)methyl acetate] | 100 to 500 nM |
| CC(=O)O[C@H]1C[C@@]2(C)[C@@H](CC[C@@H]3[C@@H]2CC[C@]2(C)[C@@H](C(=O)CO)CC[C@@H]32)C[C@@H]1O [Compound 6] | 100 to 500 nM |
| CC(=O)O[C@H]1C[C@]2(C)[C@@H](C(=O)CO)CC[C@H]2[C@@H]2CC[C@H]3C[C@H](O)CC[C@]3(C)[C@H]21 [Compound 7, (3R,5S,8S,9S,10S,11S,13S,14S,17S)-3-hydroxy-17-(2-hydroxyacetyl)-10,13-dimethyl-hexadecahydro-1H-cyclopenta[a]phenanthren-11-yl acetate] | 100 to 500 nM |
| CC(=O)O[C@H]1C[C@@H]2[C@H](CC[C@]3(C)[C@@H](C(C)=O)CC[C@@H]23)[C@@]2(C)CC[C@@H](O)C[C@H]12 [Compound 8, (3R,5S,6S,8R,9S,10R,13S,14S,17S)-17-acetyl-3-hydroxy-10,13-dimethyl-hexadecahydro-1H-cyclopenta[a]phenanthren-6-yl acetate] | 100 to 500 nM |
| CC(=O)O[C@H]1C[C@@H]2[C@H](CC[C@]3(C)[C@@H](C(=O)CO)CC[C@@H]23)[C@@]2(C)CC[C@@H](O)C[C@H]12 [Compound 9, (3R,5S,6S,8R,9S,10R,13S,14S,17S)-3-hydroxy-17-(2-hydroxyacetyl)-10,13-dimethyl-hexadecahydro-1H-cyclopenta[a]phenanthren-6-yl acetate] | 100 to 500 nM |
| CC(=O)OC1CC2(C)C(=CC#N)CCC2C2CCC3CC(O)CCC3C12 (centres unmarked) [Compound 11] | 100 to 500 nM |
| CO[C@H]1CC[C@H]2[C@@H]3CC[C@H]4C[C@H](O)CC[C@]4(COC(C)=O)[C@H]3CC[C@]12C [Compound 13] | 100 to 500 nM |
